From US8592475B2, “Inhibitors of Akt activity” (GlaxoSmithKline LLC, priority 2008, dated 2013)

molecular target: T1, full length AKT1 (Homo sapiens, UniProt P31749); experiment: AKT enzyme assay (substrate phosphorylation, SPA); type: biochemical; conditions: in at least one experimental run; pIC50 = -log(IC50), IC50 in molar units; 10 nM activated AKT enzyme, 4 uM ATP; read-out: pIC50 against full length AKT1 (converted)
T1 construct: His tag (from vector pFastBacHTb) (N); made in house; host or cells: baculovirus; Sf9 / T. ni insect cells
T1 sequence (P31749 whole entry): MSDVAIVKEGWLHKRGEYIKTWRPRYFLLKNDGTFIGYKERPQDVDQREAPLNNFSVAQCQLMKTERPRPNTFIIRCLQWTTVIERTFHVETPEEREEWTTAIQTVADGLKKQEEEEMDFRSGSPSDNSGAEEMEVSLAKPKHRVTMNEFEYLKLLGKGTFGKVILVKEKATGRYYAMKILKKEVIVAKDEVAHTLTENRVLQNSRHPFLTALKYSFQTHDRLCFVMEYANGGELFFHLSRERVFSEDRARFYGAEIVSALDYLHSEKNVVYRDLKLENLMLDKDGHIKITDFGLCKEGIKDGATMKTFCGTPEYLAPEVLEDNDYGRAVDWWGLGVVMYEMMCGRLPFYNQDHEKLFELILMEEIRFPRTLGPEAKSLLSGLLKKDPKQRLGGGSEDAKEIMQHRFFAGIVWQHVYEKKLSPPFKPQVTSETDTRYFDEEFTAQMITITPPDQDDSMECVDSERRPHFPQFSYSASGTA
Excerpt: Cloning of Full-length Human (FL) AKT1:
Full-length human AKT1 gene was amplified by PCR from a plasmid containing myristylated-AKT1-ER (gift from Robert T. Abraham, Duke University under MTA, described in Klippel et al. in Molecular and Cellular Biology 1998 Volume 18 p. 5699) using the 5′ primer: SEQ.ID NO: 2, 5′ […] 3′ and the 3′ primer: SEQ.ID NO: 3, […] 3′. The 5′ primer included a BamHI site and the 3′ primer included an XhoI site for cloning purposes. The resultant PCR product was subcloned in pcDNA3 as a BamHI/XhoI fragment. A mutation in the sequence (TGC) coding for a Cysteine^25 was converted to the wild-type AKT1 sequence (CGC) coding for an Arginine^25 by site-directed mutagenesis using the QuikChange® Site Directed Mutagenesis Kit (Stratagene). […] For expression/purification purposes, AKT1 was isolated as a BamHI/XhoI fragment and cloned into the BamHI/XhoI sites of pFastbacHTb (Invitrogen).
Expression of FL Human AKT1:
Expression was done using the BAC-to-BAC Baculovirus Expression System from Invitrogen (catalog #10359-016). Briefly 1) the cDNA was transferred from the FastBac vector into bacmid DNA, 2) the bacmid DNA was isolated and used to transfect Sf9 insect cells, 3) the virus was produced in Sf9 cells, 4) T. ni cells were infected with this virus and sent for purification.
Purification of FL Human AKT1:
For the purification of full-length AKT1, 130 g sf9 cells (batch #41646WO2) were resuspended in lysis buffer (buffer A, 1 L, pH 7.5) containing 25 mM HEPES, 100 mM NaCl, and 20 mM imidazole. The cell lysis was carried out by Avestin (2 passes at 15K-20K psi). Cell debris was removed by centrifuging at 16K rpm for 1 hour and the supernatant was batch bound to 10 ml Nickel Sepharose HP beads at 4 C for over night. The beads were then transferred to column and the bound material was eluted with buffer B (25 mM HEPES, 100 mM NaCl, 300 mM imidazole, pH 7.5). AKT eluting fractions were pooled and diluted 3 fold using buffer C (25 mM HEPES, 5 mM DTT; pH 7.5). The sample was filtered and chromatographed over a 10 mL Q-HP column pre-equilibrated with buffer C at 2 mL/min.
The Q-HP column was washed with 3 column volume (CV) of buffer C, then step eluted with 5 CV 10% D, 5 CV 20% D, 5 CV 30% D, 5 CV 50% D and 5 CV of 100% D; where buffer D is 25 mM HEPES, 1000 mM NaCl, 5 mM DTT; pH 7.5. 5 mL fractions collected. AKT containing fractions were pooled and concentrated to 5 ml. The protein was next loaded to a 120 ml Superdex 75 sizing column that was pre-equilibrated with 25 mM HEPES, 200 mM NaCl, 5 mM DTT; pH 7.5. 2.5 mL fractions were collected.
AKT 1 eluting fractions were pooled, aliquoted (1 ml) and stored at −80 C. Mass spec and SDS-PAGE analysis were used to confirm purity and identity of the purified full-length AKT1.
Compounds of the present invention are tested for AKT 1, 2, and 3 protein serine kinase inhibitory activity in substrate phosphorylation assays. This assay examines the ability of small molecule organic compounds to inhibit the serine phosphorylation of a peptide substrate. The substrate phosphorylation assays use the catalytic domains of AKT 1, 2, or 3. AKT 1, 2 and 3 are also commercially available from Upstate USA, Inc. The method measures the ability of the isolated enzyme to catalyze the transfer of the gamma-phosphate from ATP onto the serine residue of a biotinylated synthetic peptide SEQ. ID NO: 5 (Biotin-ahx-ARKRERAYSFGHHA-amide). Substrate phosphorylation is detected by the following procedure: […]

| Structure (SMILES) | IC50 [nM] |
| --- | --- |
| Cn1nccc1-c1c(Cl)sc(NC(=O)C(CN)c2ccccc2)c1Cl (centres unmarked) [Example 1, 3-amino-N-[3,5-dichloro-4-(1-methyl-1H-pyrazol-5-yl)-2-thienyl]-2-phenylpropanamide] | 158 |
| Cn1ncc(Cl)c1-c1cc(NC(=O)[C@@H](CN)Cc2ccccc2)sc1Cl [Example 5, (2R)-3-amino-N-[5-chloro-4-(4-chloro-1-methyl-1H-pyrazol-5-yl)-2-thienyl]-2-(phenylmethyl)propanamide] | 10 |

Other lines, results leading:

| IC50 [nM] | Structure (SMILES) |
| --- | --- |
| 1.58 | Cn1ncc(Cl)c1-c1cc(NC(=O)[C@H](CN)Cc2ccc(F)c(F)c2)sc1Cl [Example 7, (2S)-3-amino-N-[5-chloro-4-(4-chloro-1-methyl-1H-pyrazol-5-yl)-2-thienyl]-2-[(3,4-difluorophenyl)methyl]propanamide] |
| 5.01 | Cn1ncc(Cl)c1-c1cc(NC(=O)[C@@H](CN)Cc2ccccc2F)sc1Cl [Example 10, (2R)-3-amino-N-[5-chloro-4-(4-chloro-1-methyl-1H-pyrazol-5-yl)-2-thienyl]-2-[(2-fluorophenyl)methyl]propanamide] |
| 2.51 | Cn1ncc(Cl)c1-c1cc(NC(=O)[C@H](CN)Cc2cccc(F)c2)sc1Cl [Example 13, (2S)-3-amino-N-[5-chloro-4-(4-chloro-1-methyl-1H-pyrazol-5-yl)-2-thienyl]-2-[(3-fluorophenyl)methyl]propanamide] |
